# Test results published in patent US20160237450A1, “METHOD FOR ENHANCING DROUGHT TOLERANCE IN PLANTS” (Plant Response Biotech S.L., priority 2015, published 2016).
# Assays:
# [1] = TMAO accumulation in pepper leaves after spray (NMR); details: 1 g/l spray
# Experimental: TMAO content in plants was determined by harvesting three leaves per treatment and freezing them in liquid nitrogen before the Nuclear Magnetic Resonance spectroscopy (NMR) determination. At least three independent plants were treated per experiment. TMAO content in plant extracts was quantified by NMR spectrometry using a Bruker Advance DRX 500 MHz spectrometer equipped with a 5 mm inverse triple resonance probe head. A known concentration of [3-(trimethylsilyl) propionic-2,2,3,3-d4 acid sod. salt, (TSP-d4)] was used as internal reference. All experiments were conducted at 298K and the data was acquired and processed using the same parameters. Spectra processing was performed on PC station using Topspin 2.0 software (Bruker).
# ‘Murano’ pepper seeds and ‘Bomi’ barley seeds were sown and grown as described above. Control plants (six weeks old) were sprayed with water and pepper treated plants were sprayed with 1 g/l of TMAO di-hydrate while barley plants were sprayed with 1 g/l of TMAO di-hydrate formulated with 0.1% of C8-C10 Alkylpolysaccharide. Leaves were harvested and TMAO was determined by NMR. The percentage of TMAO increase compared to untreated controls was determined for each time point.
# [2] = TMAO accumulation in barley leaves after spray (NMR); assay type: in vivo; details: 1 g/l spray formulated with 0.1% C8-C10 Alkylpolysaccharide, 1 day post spray
# Experimental: At least three independent plants were treated per experiment.
# Leaves were harvested and TMAO was determined by NMR.
# [3] = system: pepper plants ('Palermo'); assay: Pepper fruit production, spray or constant irrigation; assay type: in vivo
# Source text: TMAO di-hydrate applied exogenously which increases the endogenous content of TMAO as if the plants were overexpressing an FMO protein at least 4 times increases pepper production per plant and pepper fruit weight under limited water irrigation and under no stress. ‘Palermo’ pepper seeds were sown, grown and treated as described above.
# corn plants ('FAO700') [4] = assay: Corn chlorophyll content under limited water; assay type: in vivo; details: 30% water; 1 g/L spray; after three months
# Experimental: (§1) In order to determine the drought or drought stress tolerance after seed treatments with TMAO di-hydrate and germination in the presence of TMAO di-hydrate, barley “Hispanic” seeds, corn “FAO700” seeds, and “Sambro” sunflower seeds were surface sterilized for 3 minutes in ethanol 70%, then rinsed twice and finally included in a pre-treatment solution of 1 g/L TMAO di-hydrate solution (or just water) under shaking for 3 hours at a dose of 1 litre per Kg of seeds. Then, the seeds were sown in randomized plots of 10 sqm in a surface of 2.000 sqm. Chlorophyll content was measured 1 month before harvest. In corn irrigation was applied in half of the plots while the other half only received an initial establishment watering. The barley plots received 200 l of rain per m^2 through the growing season. Some of the plots received a second spray treatment with 1 g/liter of TMAO. […] At least 3 independent plants were treated per experiment.
# TMAO di-hydrate applied exogenously increases plant production in corn which increases the endogenous content of TMAO as if the plants were overexpressing an FMO protein at least 4 times under limited water irrigation. ‘FAO700” corn seeds were sown, grown and treated as described above. […] After this time, the absorbance of the suspension (OD663) was determined as an indicator of chlorophyll concentration.
# [5] = system: broccoli plants ('Parthenon'); assay: Broccoli inflorescence production under limited water; assay type: in vivo; details: 30% water; for % Control (inflorescence weight): versus untreated 30% water
# Source text: TMAO di-hydrate applied exogenously which increases the endogenous content of TMAO as if the plants were overexpressing an FMO protein at least 4 times increases plant production in broccoli under limited water irrigation. ‘Parthenon’ broccoli seeds were sown, grown and treated as described above. Spray and irrigation treatments with 1 g/L TMAO di-hydrate increased plant production, as measured by the average weight of the crown plus stems in grams.
# lettuce plants (Iceberg) = assay: Yield production without drought stress, lettuce; assay type: in vivo; details: 1 g/l spray every 4 weeks for 3 months, no drought stress
# Experimental: In order to determine the plant yield productivity under normal conditions, ‘Sabrina’, ‘Candonga’ and ‘Fortuna’ strawberry varieties, leek, lettuce, “Iceberg” variety, broccoli “Parthenon” variety, celery or kohlrabi plants, were grown under standard production conditions and 120 plants of each variety per treatment (where the treatment was a control comprising standard watering or 1 g/L of TMAO di-hydrate spray every four weeks) were analyzed. Plants were located in four (4) different positions for each group of 30 plants from the same treatment. Fruits, leaves or roots were harvested from individual plants and total weight was determined for each plant.
# Root or leaves yield was determined in the plants treated with 1 g/l of TMAO di-hydrate or water as described above in order to evaluate the trade-off costs of the treatment with no drought stress.
# corn plants ('FAO700') [6] = assay: Corn grains per cob under limited water; assay type: in vivo; details: 30% water
# Experimental: as §1
# TMAO di-hydrate applied exogenously which increases the endogenous content of TMAO as if the plants were overexpressing an FMO protein at least 4 times increases plant production in corn under limited water irrigation. ‘FAO700’ corn seeds were sown, grown and treated as described above. Spray treatments with 1 g/L TMAO di-hydrate increased plant grain production.
# [7] = 30% water, 1 g/L in every irrigation
compound,measurement,setting,value
"C[N+](C)(C)[O-].O.O [TMAO di-hydrate, trimethylamine N-oxide di-hydrate]",TMAO % Control,[1]; 1 day post spray,529%
same,TMAO (μM) in leaves,[1]; 1 day post spray,1755.2 µM
same,TMAO % Control,[1]; 10 days post spray,373%
same,TMAO (μM) in leaves,[1]; 10 days post spray,1237.6 µM
same,TMAO % Control,[1]; 20 days post spray,286%
same,TMAO (μM) in leaves,[1]; 20 days post spray,948.9 µM
same,TMAO % Control,[1]; 30 days post spray,135%
same,TMAO (μM) in leaves,[1]; 30 days post spray,449.2 µM
same,TMAO % Control,[1]; 40 days post spray,213%
same,TMAO (μM) in leaves,[1]; 40 days post spray,709.4 µM
same,TMAO % Control,[2],822%
same,TMAO (μM) in leaves,[2],4633.2 µM
same,increase in average fruit weight production per pepper plant versus 100% irrigation untreated,[3]; [7],13.3%
same,increase in average weight per pepper fruit versus 100% irrigation untreated,[3]; [7],11.9%
same,AVERAGE FRUIT WEIGHT (GRAMS) PER PEPPER PLANT,"[3]; 30% water, 1 g/L irrigation",545.0 ± 36.4 GRAMS
same,AVERAGE FRUIT WEIGHT (GRAMS) PER PEPPER PLANT,"[3]; 30% water, 1 g/L spray",504.8 ± 46.4 GRAMS
same,AVERAGE WEIGHT (GRAMS) PER PEPPER FRUIT,"[3]; 30% water, 1 g/L spray",33.5 ± 0.9 GRAMS
same,increase in average fruit weight production per pepper plant versus 100% irrigation untreated,"[3]; 30% water, 1 g/L spray",4.9%
same,increase in average fruit weight production per pepper plant in the absence of stress,"[3]; 100% water, 1 g/L in every irrigation",17.9%
same,AVERAGE FRUIT WEIGHT (GRAMS) PER PEPPER PLANT,"[3]; 100% water, 1 g/L irrigation",567.4 ± 19.6 GRAMS
same,AVERAGE WEIGHT (GRAMS) PER PEPPER FRUIT,"[3]; 100% water, 1 g/L irrigation",35.7 ± 1.3 GRAMS
same,OD663 ABSORVANCE (CHLOROPHYLL a),corn plants ('FAO700') [4],0.7278 ± 0.076
same,AVERAGE WEIGHT (grams/inflorescence),[5]; 1 g/L irrigation,85.2 ± 4.6 grams/inflorescence
same,% Control (inflorescence weight),[5]; 1 g/L irrigation,106%
same,AVERAGE WEIGHT (grams/inflorescence),[5]; 1 g/L spray,87.3 ± 6.7 grams/inflorescence
same,% Control (inflorescence weight),[5]; 1 g/L spray,108%
same,"Yield production, % Control",lettuce plants (Iceberg),112%
same,AVERAGE NUMBER OF GRAINS PER COB,corn plants ('FAO700') [6]; 1 g/L seed treatment,542.89 ± 41.22
same,AVERAGE NUMBER OF GRAINS PER COB,corn plants ('FAO700') [6]; 1 g/L spray,511.34 ± 19.70
same,increase in total number of grains per corn cob compared to 100% water irrigation,"corn plants ('FAO700') [6]; 1 g/L, row 4",2%
